Positions of bridges follow the written chain, without caps; N, C: chain ends. Residues, ends and D or L forms follow the SMILES beside them.
Tests used:
plasma renin activity = details: intact rats, given subcutaneously
Excerpt: This is important because lowered blood pressure is a strong stimulus to renin release.

gastric emptying = experiment: Gastric emptying of Phenol Red methylcellulose gel after gavage (Example 5); assay type: in vivo, rat; details: for ED50 for suppression of gastric emptying: diabetic BB rats fasted 6 hours; for ED50 for change in gastric emptying: normal HSD rats fasted 20 hours
Method: When BB rats were confirmed as being diabetic by glycosuria on at least 2 days, they were treated with daily s.c. injections of ultralente recombinant human insulin (Humulin-U, Eli Lilly, Indianapolis). Insulin therapy was aimed at maintaining glucose but minimizing ketones in the urine, in order to avoid hypoglycemic deaths. In fact, glycosuria was present in 88% of measurements and ketonuria in 52%. The average duration of diabetes was 53±5 days, and daily insulin requirements were 4.7±0.3 units. All animals were housed at […] in a 12:12 hour light:dark cycle (experiments being performed during the light cycle) and were fed and watered ad libitum (Diet LM-485, Teklad, Madison, Wis.).
The determination of gastric emptying by the method described below has usually been performed after a fast of ˜20 hours to ensure that the stomach contained no chyme that would interfere with spectrophotomertric absorbance measurements. However, diabetic rats treated with Ultralente insulin could not be fasted for 20 hours. […] Such animals were therefore fasted for only 6 hours before measurement of gastric emptying. Non-diabetic rates were deprived of food for either 6 or 20 hours prior to experimentation. We have note that even non-diabetic BB rats have elevated glycated hemoglobin concentrations, possibly indicating subclinical insulitis. Both non-diabetic Harlan Sprague Dawley rats and non-diabetic BB rats animals were therefor use in comparisons with diabetic rats. Thus there were 5 treatment groups:
Twenty minutes after gavage, rats were anesthetized using 5% halothane, the stomach exposed and clamped at the pyloric and lower esophageal spincters using artery forceps, removed and opened into an alkaline solution which was made up to a fixed volume. Stomach content was derived from the intensity of the phenol red in the alkaline solution, measured by absorbance at a wavelength of 560 nm. In most experiments, the stomach was clear. In other experiments, particulate gastric contents were centrifuged to clear the solution for absorbance measurements. Where the diluted gastric contents remained turbid, the spectroscopic absorbance due to Phenol Red was derived as the difference between that present in alkaline vs acidified diluent. In separate experiments on 7 rats, the stomach and small intestine were both excised and opened into an alkaline solution. The quantity of phenol red that could be recovered from the upper gastrointestinal tract within 20 minutes of gavage was 89±4%. To account for a maximal dye recovery of less than 100%, stomach contents remaining after 20 min were expressed as a fraction of the gastric contents recovered from control rats sacrificed immediately after gavage in the same experiment.
Pairwise comparisons were performed using one-way analysis of variance and the Student-Newman-Keuls multiple comparisons test (Instat v2.0, GraphPad Software, San Diego) using P<0.05 as the level of significance.

[1] = Plasma amylin concentration after subcutaneous rat amylin (immuno-enzymometric assay); assay type: in vivo; details: sc, 1 μg, Peak plasma amylin concentration, 1 μg s.c., 20 min
Method: The plasma from 250 μL samples collected at 10 min intervals was separated and frozen at −20° C. for analysis by a 2-site immuno-enzymometric assay developed in-house.
To perform the immunoassay, black microtiter plates (Dynatech, Chantilly, Va.) were coated with the antibody F024-4.4 [Phelps JL, Blase E, Koda JE, unpublished] by overnight incubation at 4° C. with 20 μg antibody per mL in 50 mM carbonate at pH 9.6. Plates were washed with 0.05 M Tris/0.15 M sodium chloride/0.02% sodium azide/0.1% Tween 20 (TBS/Tween), and blocked with 1.0% nonfat dry milk powder in the same carbonate buffer for one hour at room temperature. Samples were thawed on ice, and diluted in 4% BSA/200 mg/dl bovine cholesterol supertrate (Miles Pentex reagents, Miles Laboratories, Kankakee, Ill.) if necessary. Samples or standards were added to the coated and blocked plates and incubated for one hours at room temperature. After washing, the F025-27 detection antibody conjugated to alkaline phosphatase was added. […] Bound enzyme was detected by incubation of the plates with the fluorescent substrate 4-methylumbelliferyl phosphate at 50 ug/ml in 1M diethanolamine/0.5 mM MgCl, pH 9.8 for 40 minutes at room temperature. The fluorescent signal was measured with a Dynatech Microfluor plate reader, and data analyzed on Multicalc software (Wallac, Gaithersburg, Md.). […]

[2] = tested on: glucose absorption from the small intestine; experiment: Glucose absorption from duodenum / perfused small bowel in anesthetized rats; assay type: in vivo, rat
Excerpt: Because the studies involved anesthetized rather than conscious rats, they are not considered in analyzing gastric motility, e.g., rate of emptying of stomach contents into the duodenum. However, the studies indicate that absorption of glucose from the duodenum into the blood was not delayed by amylin. […] In anesthetized rats, a segment of small bowel, still connected to the animal via its blood supply, was exteriorized and cannulae inserted so that the small bowel could be perfused with glucosed solutions of controlled composition. The animals were cannulated also via an artery (for blood sampling) and via a vein (for infusion or amylin, insulin and glucose). The lumen was perfused with a tritium-labelled glucose solution. The passage of glucose from the lumen of the gut into the rat was measured by the appearance of the tritium label in the plasma. The supposition that such appearance of tritium in the plasma was indeed measuring glucose uptake from the gut was tested by administration of the glucose transport blocker, phloridzin. […] To ensure that the glucose gradient between the gut lumen and plasma remained constant, during amylin infusions, plasma glucose was “clamped” by an infusion of glucose that was varied in response to changes in plasma glucose.

[3] = Oral glucose tolerance test in dogs during amylin infusion (Example 1); assay type: in vivo, dog
Method: Mongrel dogs (9 males, 12-17 kg wt. range) were used for this study. All animals were fasted overnight prior to each study. Each animal served as its own control for all protocols. Animals were equilibrated for 30-60 minutes prior to the start of each protocol.
25% glucose (1 gm/kg) was administered by mouth at t=0 minutes. […] Samples for insulin, glucose and lactate were obtained at 15 minutes intervals from t=−45 to t=180 minutes.

[4] = cited from earlier work
[5] = rats, rabbits, humans with Paget's disease; cited from earlier work
[6] = tested on: insulin-stimulated glycogen synthesis in soleus muscle; experiment: Soleus muscle assay (inhibition of insulin-stimulated glycogen synthesis); assay type: cell-based, rat
Method: Concentrations of peptide dissolved in carrier-free buffers are determined by quantitative amino acid analysis, as described therein. The ability of compounds to act as agonists in this assay is determined by measuring EC50 values. […] Similar results were obtained with other agonist compounds listed above.

EC50 [6]	SMILES	Plasma renin activity (plasma renin activity)	ED50 of inhibition of gastric emptying (gastric emptying; both normal and diabetic rats (summary))	ED50 for suppression of gastric emptying (gastric emptying; s.c.)	ED50 for suppression of gastric emptying (gastric emptying; s.c., ±0.18 log units)	Dye recoverable from stomach 20 min after gavage (gastric emptying; diabetic rats, 10 μg s.c. (P=0.14))	Dose restoring gastric emptying in a diabetic rat to the rate of normal rats not administered amylin (gastric emptying; estimated from fitted curves of FIG. 14)	Plasma concentrations 50% effective in inhibiting gastric emptying (gastric emptying; inferred from plasma profile after 1 μg s.c.)	ED50 for change in gastric emptying (gastric emptying; s.c.)	ED50 for change in gastric emptying (gastric emptying; s.c. 5 min before gavage, ±0.19 log units)	Dye recoverable from stomach 20 min after gavage (gastric emptying; normal HSD rats, 1 μg s.c. (P=0.22))	Effect on gastric emptying (in words) (gastric emptying; s.c. 5 min before gavage, 0.01-100 μg)	Cmax [1]	Absorption of glucose from the duodenum into the blood ([2]; amylin infusion 0.35 nm/kg/min, glucose 1 g/kg)	Rate of transit of labelled glucose from small bowel lumen into plasma ([2]; perfused exteriorized small bowel segment)	Plasma glucose after oral glucose load ([3]; amylin infusion 50, 100 and 300 pmol/kg/min, glucose 1 gm/kg by mouth)	Effects on plasma lactate ([3]; oral glucose load)	Plasma glucose after injection ([4]; prolonged increase from about 6)	Plasma lactate after injection ([4]; rise from about 0.5, i.v. and s.c.)	Lowering of plasma calcium [5]
–	CC(C)C[C@H](NC(=O)[C@H](CC(N)=O)NC(=O)[C@H](CC(N)=O)NC(=O)[C@H](CO)NC(=O)[C@H](CO)NC(=O)[C@H](CCCNC(=N)N)NC(=O)[C@@H](NC(=O)[C@H](CC(C)C)NC(=O)[C@H](Cc1ccccc1)NC(=O)[C@H](CC(N)=O)NC(=O)[C@H](C)NC(=O)[C@H](CC(C)C)NC(=O)[C@H](CCCNC(=N)N)NC(=O)[C@H](CCC(N)=O)NC(=O)[C@@H](NC(=O)[C@H](C)NC(=O)[C@@H]1CSSC[C@H](NC(=O)[C@@H](N)CCCCN)C(=O)N[C@@H](CC(N)=O)C(=O)N[C@@H]([C@@H](C)O)C(=O)N[C@@H](C)C(=O)N[C@@H]([C@@H](C)O)C(=O)N1)[C@@H](C)O)C(C)C)C(=O)NCC(=O)N1CCC[C@H]1C(=O)N[C@H](C(=O)N[C@@H](CC(C)C)C(=O)N1CCC[C@H]1C(=O)N1CCC[C@H]1C(=O)N[C@H](C(=O)N[C@@H](CC(N)=O)C(=O)N[C@H](C(=O)NCC(=O)N[C@@H](CO)C(=O)N[C@@H](CC(N)=O)C(=O)N[C@H](C(=O)N[C@@H](Cc1ccc(O)cc1)C(N)=O)[C@@H](C)O)C(C)C)[C@@H](C)O)C(C)C [amylin]	markedly increases	~1 µg	2.3 nmol/gk	2.2 µg	the same as that recoverable immediately after gavage	~2 µg	less than 74 pM	0.60 nmole amylin/kg body weight	0.43 µg	the same as that recoverable immediately after gavage	dose dependent suppression of gastric emptying	0.076 nM	not delayed	no effect	reduced both the rate of rise in plasma glucose as well as the peak plasma glucose	unremarkable	~11 mM	~1.5 mM	up to 20%
6.62 nM	CC[C@H](C)[C@H](NC(=O)[C@H](C)NC(=O)CNC(=O)[C@H](Cc1ccccc1)NC(=O)[C@H](CC(N)=O)NC(=O)[C@H](CC(N)=O)NC(=O)[C@H](CO)NC(=O)[C@H](CO)NC(=O)[C@H](Cc1c[nH]cn1)NC(=O)[C@@H](NC(=O)[C@H](CC(C)C)NC(=O)[C@H](Cc1ccccc1)NC(=O)[C@H](CC(N)=O)NC(=O)[C@H](C)NC(=O)[C@H](CC(C)C)NC(=O)[C@H](CCCNC(=N)N)NC(=O)[C@H](CCC(N)=O)NC(=O)[C@@H](NC(=O)[C@H](C)NC(=O)[C@@H]1CCCCNC(=O)C[C@H](NC(=O)[C@@H](N)CCCCN)C(=O)N[C@@H](CC(N)=O)C(=O)N[C@@H]([C@@H](C)O)C(=O)N[C@@H](C)C(=O)N[C@@H]([C@@H](C)O)C(=O)N1)[C@@H](C)O)C(C)C)C(=O)N[C@@H](CC(C)C)C(=O)N[C@@H](CO)C(=O)N[C@@H](CO)C(=O)N[C@H](C(=O)N[C@@H](CC(N)=O)C(=O)N[C@H](C(=O)NCC(=O)N[C@@H](CO)C(=O)N[C@@H](CC(N)=O)C(=O)N[C@H](C(=O)N[C@@H](Cc1ccc(O)cc1)C(N)=O)[C@@H](C)O)C(C)C)[C@@H](C)O [^2,7Cyclo-[^2Asp, ^7Lys]-h-Amylin, ^2,7Cyclo-[^2Asp,^7Lys]-h-Amylin] (H-KDNTATKATQRLANFLVHSSNNFGAILSSTNVGSNTY-NH2; lactam 2-7; N-terminus and C-terminus assumed)	–	–	–	–	–	–	–	–	–	–	–	–	–	–	–	–	–	–	–
